One test addresses T1, IRAK4 (Homo sapiens, UniProt Q9NWZ3).
T1 sequence (Q9NWZ3 1-460): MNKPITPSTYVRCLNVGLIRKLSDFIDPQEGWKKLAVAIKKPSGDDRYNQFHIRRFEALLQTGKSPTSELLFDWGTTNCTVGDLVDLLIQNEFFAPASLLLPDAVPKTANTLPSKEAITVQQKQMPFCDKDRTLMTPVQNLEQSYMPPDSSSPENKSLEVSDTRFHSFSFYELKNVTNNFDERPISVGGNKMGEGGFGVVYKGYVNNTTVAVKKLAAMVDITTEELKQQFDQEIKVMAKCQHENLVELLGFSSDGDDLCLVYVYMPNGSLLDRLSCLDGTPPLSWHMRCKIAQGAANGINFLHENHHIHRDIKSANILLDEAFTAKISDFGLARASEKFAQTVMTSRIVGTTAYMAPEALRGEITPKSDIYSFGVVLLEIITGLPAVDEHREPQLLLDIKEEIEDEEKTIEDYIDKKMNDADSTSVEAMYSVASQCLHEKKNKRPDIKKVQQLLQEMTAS
In words: IRAK-4 activity inhibition assay (Caliper). The class given is biochemical. Conditions: 37 μM ATP, 3.5 nM IRAK4.

In another test the test system is THP-1 cells. Put plainly: LPS induced cytokine (TNFα and IL8) production assay in THP-1 cells. Particulars: Homo sapiens, 300 ng/mL LPS. The class given is cell-based. The method, then:
Cytokine Production Assay
Provided compounds were also assayed in an LPS (Lipopolysacharide) or R848 (TLR-7 agonist) induced cytokine (TNFα and IL8) production assay in THP-1 cells, human peripheral blood mononuclear cells (hPBMC), and whole blood. The exemplary protocol for this assay in THP-1 cells was as follows below.
THP-1 cells from ATCC (TIB-202) were cultured in RPMI Medium 1640 (Invitrogen, Cat No. A10491-01), 10% fetal bovine serum (Invitrogen, Cat No. 10099141, Lot No. 8172882) containing 100 U/mL Penicillin, 100 μg/mL streptomycin (Invitrogen, Cat No. 15140-122), and 50 uM 2-Mercaptoethanol (Invitrogen, Cat No. 21985023). LPS-EK ultra pure (Invivogen, Cat No. tlrl-peklps) was used to induce IL8 and TNFα production, that was detected in the cell culture supernatant by IL8 HTRF kit (Cisbio, Cat No. 62IL8PEB) and TNFα HTRF kit (Cisbio, Cat No. 62TNFPEB), as per manufacturer instructions. Cells were cultured in 96 well assay plates at 100,000 cells per well, and compounds diluted in final 0.3% DMSO were pre-incubated with cells for 1 hour prior to stimulation with 300 ng/mL LPS. Cytokine production in cell supernatant was measured at 5 hours for TNFα and IL8 production, and for 16 hours for IL8 production and assessment of cell viability.
The compound numbers correspond to the compound numbers in Table 1. […] “NA” stands for “not assayed.”

Counter-ions that a name gives are not always drawn. Like-named read-outs stand apart in the source and are kept apart here.

What is called IC50 is the midpoint of a concentration-inhibition curve. Regarding `NC(=O)[C@@H](O)C[C@H]1CCc2sc3ncnc(O[C@H]4CC[C@H](N)CC4)c3c21` [Compound I-135, (S)-3-((R)-4-(((1r,4R)-4-aminocyclohexyl)oxy)-6,7-dihydro-5H-cyclopenta[4,5]thieno[2,3-d]pyrimidin-5-yl)-2-hydroxypropanamide], the IC50 was less than 5 µM against IRAK4, 0.5 to 1 µM with THP-1 cells (read-out: IL8 production IC50) and 0.5 to 1 µM in the test on THP-1 cells (read-out: TNFα production IC50).

Consider `NC(=O)[C@H](O)C[C@H]1CCc2sc3ncnc(O[C@H]4CC[C@H](N5CCOCC5)CC4)c3c21` [Compound I-93, (R)-2-hydroxy-3-((R)-4-(((1r,4R)-4-morpholinocyclohexyl)oxy)-6,7-dihydro-5H-cyclopenta[4,5]thieno[2,3-d]pyrimidin-5-yl)propanamide], for which the IC50 in the test with THP-1 cells (read-out: IL8 production IC50) and in the test with THP-1 cells (read-out: TNFα production IC50) was 1 to 5 µM each time.

In the case of `CC[C@@H](O)C[C@H]1CCc2sc3ncnc(O[C@H]4CC[C@H](N(C)CC(=O)N5CCCC5)CC4)c3c21` [Compound I-71, 2-[(4-[[(3R)-3-[(2R)-2-hydroxybutyl]-7-thia-9,11-diazatricyclo[6.4.0.0[2,6]]dodeca-1(8),2(6),9,11-tetraen-12-yl]oxy]cyclohexyl)(methyl)amino]-1-(pyrrolidin-1-yl)ethan-1-one], the IC50 against IRAK4 is less than 5 µM; in the test with THP-1 cells (read-out: IL8 production IC50), 1 to 5 µM; in the test on THP-1 cells (read-out: TNFα production IC50), 0.5 to 1 µM.

Turning to `CN(C)[C@H]1CC[C@H](Oc2ncnc3sc4c(c23)CC(CCO)CC4)CC1` (stereo partly shown) [Compound I-108, 2-[3-[[4-(dimethylamino)cyclohexyl]oxy]-8-thia-4,6-diazatricyclo[7.4.0.0[2,7]]trideca-1(9),2(7),3,5-tetraen-12-yl]ethan-1-ol formate], the IC50 is less than 5 µM on IRAK4 and 1 to 5 µM in the test on THP-1 cells (read-out: TNFα production IC50).

For the compound `Cn1cc(Nc2nc(O[C@H]3CC[C@H](N(C)C)CC3)c3c4c(sc3n2)CCC4CC(N)=O)cn1` (stereo in doubt) [Compound I-222, 2-[(3R)-12-[[4-(dimethylamino)cyclohexyl]oxy]-10-[(1-methyl-1H-pyrazol-4-yl)amino]-7-thia-9, 11-diazatricyclo[6.4.0.0[2,6]]dodeca-1(8),2(6),9,11-tetraen-3-yl]acetamide], the IC50 in the test on THP-1 cells (read-out: IL8 production IC50) and in the test with THP-1 cells (read-out: TNFα production IC50) was no less than 5 µM each time.

With `OC[C@@H]1CCc2sc3ncnc(O[C@H]4CC[C@H](N5CCOCC5)CC4)c3c2C1` [Compound I-215, [(12R)-3-[[4-(morpholin-4-yl)cyclohexyl]oxy]-8-thia-4,6-diazatricyclo[7.4.0.0[2,7]]trideca-1(9),2(7),3,5-tetraen-12-yl]methanol], the values for the concentration for half-maximal inhibition (IC50) at IRAK4, in the test on THP-1 cells (read-out: IL8 production IC50) and with THP-1 cells (read-out: TNFα production IC50) were less than 5 µM, 1 to 5 µM and 0.5 to 1 µM, respectively.

For the compound `CN(CCc1ccccn1)[C@H]1CC[C@H](Oc2ncnc3sc4c(c23)[C@@H](CC(N)=O)CC4)CC1` [Compound I-128, 2-((R)-4-(((1 r,4R)-4-(methyl(2-(pyridin-2-yl)ethyl)amino)cyclohexyl)oxy)-6,7-dihydro-5H-cyclopenta[4,5]thieno[2,3-d]pyrimidin-5-yl)acetamide], the half-maximal inhibitory concentration (IC50) on IRAK4 was less than 5 µM; with THP-1 cells (read-out: IL8 production IC50) it was 0.5 to 1 µM; in the test on THP-1 cells (read-out: TNFα production IC50), 1 to 5 µM.

With `CN(C)[C@H]1CC[C@H](Oc2ncnc3sc4c(c23)[C@@H](C[C@@H](O)C2CCCO2)CC4)CC1` (stereo partly drawn) [Compound I-88, (1R)-2-((R)-4-(((1r,4R)-4-(dimethylamino)cyclohexyl)oxy)-6,7-dihydro-5H-cyclopenta[4,5]thieno[2,3-d]pyrimidin-5-yl)-1-(tetrahydrofuran-2-yl)ethanol], the figures for the IC50 against IRAK4, with THP-1 cells (read-out: IL8 production IC50) and in the test on THP-1 cells (read-out: TNFα production IC50) were less than 5 µM, 1 to 5 µM and 1 to 5 µM, respectively.

Consider `NC(=O)C[C@H]1CCc2sc3ncnc(O[C@H]4CC[C@H](N5CCCCC5)CC4)c3c21` [Compound I-214, 2-[(3R)-12-[[4-(piperidin-1-yl)cyclohexyl]oxy]-7-thia-9,11-diazatricyclo[6.4.0.0[2,6]]dodeca-1(8),2(6),9,11-tetraen-3-yl]acetamide], for which the half-maximal inhibitory concentration (IC50) was less than 5 µM on IRAK4, no more than 0.5 µM in the test on THP-1 cells (read-out: IL8 production IC50) and no more than 0.5 µM in the test with THP-1 cells (read-out: TNFα production IC50).

On to `[2H]C1([2H])c2sc3ncnc(O[C@H]4CC[C@H](N5CCOCC5)CC4)c3c2[C@@H](CC(N)=O)C1([2H])[2H]` [Compound I-188, 2-[(3R)-12-[[4-(morpholin-4-yl)cyclohexyl]oxy](4,4,5,5-d4)-7-thia-9, 11-diazatricyclo[6.4.0.0[2,6]]dodeca-1(8),2(6),9, 11-tetraen-3-yl]acetamide-d4], for which the figures for the IC50 against IRAK4, with THP-1 cells (read-out: IL8 production IC50) and with THP-1 cells (read-out: TNFα production IC50) were less than 5 µM, no more than 0.5 µM and 0.5 to 1 µM, respectively.

Turning to `N#CC(C[C@H]1CCc2sc3ncnc(O[C@H]4CC[C@H](N5CCOCC5)CC4)c3c21)C(N)=O` (stereo partly drawn) [Compound I-86, 2-cyano-3-((R)-4-(((1r,4R)-4-morpholinocyclohexyl)oxy)-6,7-dihydro-5H-cyclopenta[4,5]thieno[2,3-d]pyrimidin-5-yl)propanamide], the values for the IC50 against IRAK4 and in the test on THP-1 cells (read-out: TNFα production IC50) were less than 5 µM and 1 to 5 µM, respectively.

Turning to `CN(C)[C@H]1CC[C@H](Oc2nc(Nc3ccccc3)nc3sc4c(c23)C(CC(N)=O)CC4)CC1` (stereo partly shown) [Compound I-204, 2-(12-[[4-(dimethylamino)cyclohexyl]oxy]-10-(phenylamino)-7-thia-9, 11-diazatricyclo[6.4.0.0̂[2,6]]dodeca-1(12),2(6),8, 10-tetraen-3-yl)acetamide], the 50% inhibitory concentration (IC50) in the test on THP-1 cells (read-out: IL8 production IC50) was in the range of 1 to 5 µM; in the test with THP-1 cells (read-out: TNFα production IC50) it was 0.5 to 1 µM.

Regarding `NC(=O)C(O)C[C@H]1CCc2sc3ncnc(O[C@H]4CC[C@H](N5CCOCC5)CC4)c3c21` (mixture of isomers) [Compound I-87, 2-hydroxy-3-((R)-4-(((1r,4R)-4-morpholinocyclohexyl)oxy)-6,7-dihydro-5H-cyclopenta[4,5]thieno[2,3-d]pyrimidin-5-yl)propanamide], the IC50 in the test with THP-1 cells (read-out: IL8 production IC50) and in the test on THP-1 cells (read-out: TNFα production IC50) was no more than 0.5 µM throughout.

As to `CN(C)[C@H]1CC[C@H](Oc2ncnc3sc4c(c23)[C@@H](C[C@H](O)C(N)=O)CC4)CC1` [Compound I-74, (2S)-3-[(3R)-12-[[4-(dimethylamino)cyclohexyl]oxy]-7-thia-9,11-diazatricyclo[6.4.0.0̂[2,6]]dodeca-1(8),2(6),9,11-tetraen-3-yl]-2-hydroxypropanamide], the IC50 at IRAK4 is less than 5 µM.

Consider `C[C@@H](O)CNC(=O)C[C@H]1CCc2sc3ncnc(O[C@H]4CC[C@H](N(C)C)CC4)c3c21` [Compound I-141, 2-((R)-4-(((1r,4R)-4-(dimethylamino)cyclohexyl)oxy)-6,7-dihydro-5H-cyclopenta[4,5]thieno[2,3-d]pyrimidin-5-yl)-N—((R)-2-hydroxypropyl)acetamide], for which the IC50 against IRAK4 was in the range of 5 to 20 µM.

In the case of `CNC(=O)N1Cc2sc3ncnc(O[C@H]4CC[C@H](N5CCOCC5)CC4)c3c2C1` [Compound I-200, N-methyl-12-[[4-(morpholin-4-yl)cyclohexyl]oxy]-7-thia-4,9, 11-triazatricyclo[6.4.0.0[2,6]]dodeca-1(8),9, 11-triene-4-carboxamide], the IC50 against IRAK4 is less than 5 µM.

For `CC[C@H](O)C[C@H]1CCc2sc3ncnc(O[C@H]4CC[C@H](N5CCOCC5)CC4)c3c21` [Compound I-64, (S)-1-((R)-4-(((1r,4R)-4-morpholinocyclohexyl)oxy)-6,7-dihydro-5H-cyclopenta[4,5]thieno[2,3-d]pyrimidin-5-yl)butan-2-ol], the IC50 against IRAK4 is less than 5 µM.

`NC(=O)C[C@H]1CCc2sc3ncnc(O[C@H]4CC[C@@H](N5CCNC(=O)C5)CC4)c3c21` [Compound I-157, 2-((R)-4-(((1s,4S)-4-(3-oxopiperazin-1-yl)cyclohexyl)oxy)-6,7-dihydro-5H-cyclopenta[4,5]thieno[2,3-d]pyrimidin-5-yl)acetamide]: the IC50 on IRAK4 is less than 5 µM.

On IRAK4, `C[C@]1(N)CC[C@H](Oc2ncnc3sc4c(c23)[C@@H](CC(N)=O)CC4)CC1` [Compound I-161, 2-[(3R)-12-[(4-amino-4-methylcyclohexyl)oxy]-7-thia-9,11-diazatricyclo[6.4.0.0[2,6]]dodeca-1(8),2(6),9,11-tetraen-3-yl]acetamide] gave an IC50 of 5 to 20 µM.

`c1nc(O[C@H]2CC[C@H](N3CCOCC3)CC2)c2c3c(sc2n1)CNC3` [Compound I-192, 12-[[4-(morpholin-4-yl)cyclohexyl]oxy]-7-thia-4,9, 11-triazatricyclo[6.4.0.0[2,6]]dodeca-1(12),2(6),8, 10-tetraene]: the half-inhibitory concentration (IC50) on IRAK4 was less than 5 µM.

Values taken from US20160193216A1 (Nimbus Iris, Inc., priority 2012, published 2016).
